Test results published in the supplement of paper PMC11061612.

What was measured:
[1] = system: SK-GT-4 (Esophageal Adenocarcinoma); assay: Bliss excess, mean over the matrix (fraction); higher = more synergy
Summary of the method: (§1)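 After 24 hours at 37°C and 5% CO2 in 1536-well plates, cells in DMEM/F12 or RPMI plus 10% FBS received two-drug dose matrices for 72 hours. Viability came from CellTiter-Glo 2.0 luminescence and was scaled as inhibition, anchored at 0 by vehicle wells and at 1 by blank wells. Combination Emax is taken as the second-highest inhibition in the matrix, and Bliss excess as the observed combination effect less EA + EB − EA·EB, with EA and EB the single-agent effects.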

[2] = system: KY821 (Acute Myeloid Leukemia); assay: combination Emax (second highest fraction inhibited in the dose matrix, 72 h); higher = more inhibition; extreme values may be limits of the assay
Summary of the method: as §1

[3] = system: MN-60 (B-Lymphoblastic Leukemia); assay: as above
Summary of the method: as §1

[4] = system: IM-95 (Gastric Carcinoma); assay: as above
Summary of the method: as §1

[5] = system: ESO51 (Esophageal Adenocarcinoma); assay: as above
Summary of the method: as §1

[6] = system: DMS-114 (Small Cell Lung Carcinoma); assay: as above
Summary of the method: as §1

[7] = system: PC-3 (Prostate Carcinoma); assay: as above
Summary of the method: as §1

[8] = system: SU-DHL-5 (B-Cell Non-Hodgkin's Lymphoma); assay: as above
Summary of the method: as §1

[9] = system: 8505C (Thyroid Gland Carcinoma); assay: as above
Summary of the method: as §1

[10] = system: NCI-H520 (Squamous Cell Lung Carcinoma); assay: as above
Summary of the method: as §1

[11] = system: CHSA8926 (Chondrosarcoma); assay: as above
Summary of the method: as §1

[12] = system: T-T (Esophageal Squamous Cell Carcinoma); assay: as above
Summary of the method: as §1

[13] = system: KP-3 (Pancreatic Carcinoma); assay: as above
Summary of the method: as §1

[14] = system: ST486 (Burkitt's Lymphoma); assay: as above
Summary of the method: as §1

[15] = system: COR-L279 (Small Cell Lung Carcinoma); assay: as above
Summary of the method: as §1

[16] = system: SK-GT-4 (Esophageal Adenocarcinoma); assay: as above
Summary of the method: as §1

[17] = system: SUP-B15 (B-Lymphoblastic Leukemia); assay: as above
Summary of the method: as §1

[18] = system: NCI-H661 (Non-Small Cell Lung Carcinoma); assay: as above
Summary of the method: as §1

[19] = system: SNU-398 (Hepatocellular Carcinoma); assay: as above
Summary of the method: as §1

[20] = system: HCC1187 (Breast Carcinoma); assay: as above
Summary of the method: as §1
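Throughout, for Bliss excess, mean over the matrix: after 72 h of two-drug dosing.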

| SMILES | Bliss excess [1] | combination Emax [2] | combination Emax [3] | combination Emax [4] | combination Emax [5] | combination Emax [6] | combination Emax [7] | combination Emax [8] | combination Emax [9] | combination Emax [10] | combination Emax [11] | combination Emax [12] | combination Emax [13] | combination Emax [14] | combination Emax [15] | combination Emax [16] | combination Emax [17] | combination Emax [18] | combination Emax [19] | combination Emax [20] |
| --- | --- | --- | --- | --- | --- | --- | --- | --- | --- | --- | --- | --- | --- | --- | --- | --- | --- | --- | --- | --- |
| COc1cccc(OCCCN)c1-c1cc(Nc2cnc(C#N)cn2)n[nH]1 [Prexasertib] + C=CCn1c(=O)c2cnc(Nc3ccc(N4CCN(C)CC4)cc3)nc2n1-c1cccc(C(C)(C)O)n1 [AZD1775] (first compound max 1 µM, partner max 1 µM) | 0.0313 | 1 | 0.653 | 0.691 | 0.757 | 0.385 | 0.442 | 1 | 0.727 | 0.853 | 0.531 | 0.888 | 0.472 | 1 | 0.881 | 0.758 | 0.978 | 0.788 | 0.514 | 0.819 |
| C[C@@H](c1ccc2nccn2c1)n1nnc2ncc(-c3cnn(C)c3)nc21 [Savolitinib] + CC1(C)CCC(CN2CCN(c3ccc(C(=O)NS(=O)(=O)c4ccc(NCC5CCOCC5)c([N+](=O)[O-])c4)c(Oc4cnc5[nH]ccc5c4)c3)CC2)=C(c2ccc(Cl)cc2)C1 [Venetoclax] (first compound max 1 µM, 7x7, partner max 1 µM) | -0.0732 | 0.895 | 0.125 | 0.333 | 0.877 | 0.299 | 0.121 | 0.142 | 0.12 | 0.138 | 0.29 | 0.236 | 0.131 | 0.118 | 0.199 | 0.101 | 1 | 0.115 | 0.127 | 0.0587 |
| Cc1cc2ncnn2cc1Nc1ncc2c(n1)n(C1CCOCC1)c(=O)n2C [AZD7648] + CN(C)CCCOc1ccc(-c2ccc3ncc4c(c3c2)n(C2CCOCC2)c(=O)n4C)cn1 [AZD0156] (first compound max 10 µM, 7x7, partner max 1 µM) | -0.0406 | 0.417 | 0.201 | 0.303 | 0.192 | 0.293 | 0.257 | 0.66 | 0.189 | 0.614 | 0.446 | 0.246 | 0.159 | 0.274 | 0.4 | 0.315 | 0.174 | 0.237 | 0.194 | 0.104 |
| CN(C)CCCOc1ccc(-c2ccc3ncc4c(c3c2)n(C2CCOCC2)c(=O)n4C)cn1 [AZD0156] + C=CCn1c(=O)c2cnc(Nc3ccc(N4CCN(C)CC4)cc3)nc2n1-c1cccc(C(C)(C)O)n1 [AZD1775] (first compound max 1 µM, partner max 1 µM) | -0.0676 | 0.987 | 0.374 | 0.454 | 0.69 | 0.257 | 0.224 | 0.977 | 0.126 | 0.789 | 0.49 | 0.377 | 0.211 | 0.987 | 0.454 | 0.4 | 0.602 | 0.523 | 0.473 | 0.299 |
| CC1(C)CCC(CN2CCN(c3ccc(C(=O)NS(=O)(=O)c4ccc(NCC5CCOCC5)c([N+](=O)[O-])c4)c(Oc4cnc5[nH]ccc5c4)c3)CC2)=C(c2ccc(Cl)cc2)C1 [Venetoclax] + C1CN(CCC1(C(=O)N[C@@H](CCO)C2=CC=C(C=C2)Cl)N)C3=NC=NC4=C3C=CN4 [Capivasertib] (first compound max 1 µM, 7x7, partner max 3 µM) | -0.0728 | 1 | 0.293 | 0.398 | 0.11 | 0.24 | 0.365 | 0.915 | 0.139 | 0.609 | 0.331 | 0.221 | 0.137 | 0.759 | 0.418 | 0.484 | 1 | 0.192 | 0.217 | 0.183 |
